For assay [1], the target named is Histone-lysine N-methyltransferase 2A/WDR5 (Homo sapiens, UniProt P61964). As to the kind of experiment: Inhibition of MLL1/WDR5 (unknown origin) protein-protein interaction incubated for 2 hrs by FP analysis. The class given is protein assay.
Assay [2] concerns the target Histone deacetylase 1 (Homo sapiens, UniProt Q13547). The assay can be described thus: Inhibition of HDAC1 (unknown origin) by fluorescence based assay.
In assay [3] the target is Histone deacetylase 3 (Homo sapiens, UniProt O15379). The assay can be described thus: Inhibition of HDAC3 (unknown origin) by fluorescence based assay.
The target of assay [4] is T1, Protein deacetylase HDAC6 (Homo sapiens, UniProt Q9UBN7).
T1 sequence (Q9UBN7 whole entry): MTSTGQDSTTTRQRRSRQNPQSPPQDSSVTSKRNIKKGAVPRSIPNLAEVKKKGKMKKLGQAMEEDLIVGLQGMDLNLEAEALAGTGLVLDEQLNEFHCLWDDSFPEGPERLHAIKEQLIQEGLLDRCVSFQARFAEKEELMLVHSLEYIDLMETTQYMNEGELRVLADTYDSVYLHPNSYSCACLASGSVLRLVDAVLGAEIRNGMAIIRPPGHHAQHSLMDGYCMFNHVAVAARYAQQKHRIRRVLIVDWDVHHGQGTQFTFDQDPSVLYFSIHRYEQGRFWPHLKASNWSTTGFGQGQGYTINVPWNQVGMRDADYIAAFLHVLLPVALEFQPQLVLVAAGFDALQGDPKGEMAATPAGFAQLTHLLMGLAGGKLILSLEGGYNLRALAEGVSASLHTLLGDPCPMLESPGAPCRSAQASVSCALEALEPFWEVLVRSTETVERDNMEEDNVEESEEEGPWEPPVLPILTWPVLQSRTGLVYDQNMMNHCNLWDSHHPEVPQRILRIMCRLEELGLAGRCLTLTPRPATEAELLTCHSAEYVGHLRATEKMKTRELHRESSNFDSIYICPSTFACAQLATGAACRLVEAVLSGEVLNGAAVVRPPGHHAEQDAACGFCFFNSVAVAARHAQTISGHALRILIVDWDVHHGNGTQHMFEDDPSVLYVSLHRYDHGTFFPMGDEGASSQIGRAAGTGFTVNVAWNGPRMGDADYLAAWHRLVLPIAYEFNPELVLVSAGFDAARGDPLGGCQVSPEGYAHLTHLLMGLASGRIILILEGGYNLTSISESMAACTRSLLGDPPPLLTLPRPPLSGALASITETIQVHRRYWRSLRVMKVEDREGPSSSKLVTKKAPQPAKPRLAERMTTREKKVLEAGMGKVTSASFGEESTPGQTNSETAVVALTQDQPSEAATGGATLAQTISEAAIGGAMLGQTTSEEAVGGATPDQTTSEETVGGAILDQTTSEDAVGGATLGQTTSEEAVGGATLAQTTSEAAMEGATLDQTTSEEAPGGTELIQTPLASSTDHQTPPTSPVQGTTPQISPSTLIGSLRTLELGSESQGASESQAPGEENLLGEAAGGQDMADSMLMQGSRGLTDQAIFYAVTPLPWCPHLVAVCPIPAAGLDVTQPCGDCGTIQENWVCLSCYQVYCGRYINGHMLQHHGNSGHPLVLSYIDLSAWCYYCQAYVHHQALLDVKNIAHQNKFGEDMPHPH
The assay can be described thus: Inhibition of HDAC6 (unknown origin) by fluorescence based assay.

In assay [5] the test system is MV4-11. As to the kind of experiment: cells. The assay is classed as functional, cell-based. The following applies: Homo sapiens, MV4-11, 72 h.
Description: Antiproliferative activity against human MV4-11 cells assessed as inhibition of cell growth measured after 72 hrs by CellTiterGlo assay
The test system of assay [6] is MOLM-13. As to the kind of experiment: cells. To be noted: Homo sapiens, MOLM-13, 72 h. The assay is classed as functional, cell-based.
Description: Antiproliferative activity against human MOLM-13 cells assessed as inhibition of cell growth measured after 72 hrs by CellTiterGlo assay
Assay [7] has as its target Histone deacetylase 2 (Homo sapiens, UniProt Q92769). The assay can be described thus: Inhibition of HDAC2 (unknown origin) by fluorescence based assay.
The target in assay [8] is T2, Histone deacetylase 8 (Homo sapiens, UniProt Q9BY41).
T2 sequence (Q9BY41 whole entry): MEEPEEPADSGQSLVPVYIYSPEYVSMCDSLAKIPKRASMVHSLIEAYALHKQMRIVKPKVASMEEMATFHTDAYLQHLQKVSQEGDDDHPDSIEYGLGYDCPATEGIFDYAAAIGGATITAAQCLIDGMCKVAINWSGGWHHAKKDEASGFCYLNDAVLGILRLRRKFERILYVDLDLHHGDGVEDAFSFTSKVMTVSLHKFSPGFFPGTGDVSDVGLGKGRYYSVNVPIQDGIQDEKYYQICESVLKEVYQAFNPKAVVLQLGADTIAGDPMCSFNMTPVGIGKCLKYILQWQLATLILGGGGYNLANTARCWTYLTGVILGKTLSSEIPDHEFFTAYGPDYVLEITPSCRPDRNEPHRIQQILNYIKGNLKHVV
As to the kind of experiment: Inhibition of HDAC8 (unknown origin) by fluorescence based assay.

Assay [9] deals with Histone deacetylase 4 (Homo sapiens, UniProt P56524). As to the kind of experiment: Inhibition of HDAC4 (unknown origin) by fluorescence based assay.
Assay [10] deals with T3, Histone deacetylase 11 (Homo sapiens, UniProt Q96DB2).
T3 sequence (Q96DB2 whole entry): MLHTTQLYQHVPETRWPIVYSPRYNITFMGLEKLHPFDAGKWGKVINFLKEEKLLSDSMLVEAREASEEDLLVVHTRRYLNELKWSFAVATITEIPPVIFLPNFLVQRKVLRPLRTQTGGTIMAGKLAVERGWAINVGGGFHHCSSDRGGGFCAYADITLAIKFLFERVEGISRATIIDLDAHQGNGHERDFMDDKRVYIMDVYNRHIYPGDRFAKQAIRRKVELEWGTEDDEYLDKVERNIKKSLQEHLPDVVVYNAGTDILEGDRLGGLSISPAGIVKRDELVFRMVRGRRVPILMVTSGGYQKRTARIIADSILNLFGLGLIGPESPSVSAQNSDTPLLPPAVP
As to the kind of experiment: Inhibition of HDAC11 (unknown origin) by fluorescence based assay.

In assay [11] the target is Histone-lysine N-methyltransferase 2A (Homo sapiens, UniProt Q03164). As to the kind of experiment: Inhibition of MLL1 (unknown origin) by fluorescence based assay.
The test system of assay [12] is MV4-11. As to the kind of experiment: Induction of apoptosis in human MV4-11 cells assessed as viable cells at 200 nmol/L incubated for 72 hrs by Annexin V/PI staining based flow cytometry analysis (reference value: 90.23%). The assay is classed as functional.
Assay [13] deals with MV4-11. The assay can be described thus: Induction of apoptosis in human MV4-11 cells assessed as early apoptotic cells at 200 nmol/L incubated for 72 hrs by Annexin V/PI staining based flow cytometry analysis (reference value: 4.17 %). The assay is classed as functional. In general terms: A flow cytometer gives signals particle by particle.
Assay [14] concerns MV4-11. As to the kind of experiment: Induction of apoptosis in human MV4-11 cells assessed as late apoptotic cells at 200 nmol/L incubated for 72 hrs by Annexin V/PI staining based flow cytometry analysis (reference value: 5.14%). The class given is functional.
For assay [15], the system named is MV4-11. As to the kind of experiment: Induction of apoptosis in human MV4-11 cells assessed as necrotic cells at 200 nmol/L incubated for 72 hrs by Annexin V/PI staining based flow cytometry analysis (reference value: 0.46%). The class given is functional.

SMILES strings stand for the structures. Where only a bound is given, the exact number is not on record here.

Sequence of Histone deacetylase 3 (O15379 whole entry): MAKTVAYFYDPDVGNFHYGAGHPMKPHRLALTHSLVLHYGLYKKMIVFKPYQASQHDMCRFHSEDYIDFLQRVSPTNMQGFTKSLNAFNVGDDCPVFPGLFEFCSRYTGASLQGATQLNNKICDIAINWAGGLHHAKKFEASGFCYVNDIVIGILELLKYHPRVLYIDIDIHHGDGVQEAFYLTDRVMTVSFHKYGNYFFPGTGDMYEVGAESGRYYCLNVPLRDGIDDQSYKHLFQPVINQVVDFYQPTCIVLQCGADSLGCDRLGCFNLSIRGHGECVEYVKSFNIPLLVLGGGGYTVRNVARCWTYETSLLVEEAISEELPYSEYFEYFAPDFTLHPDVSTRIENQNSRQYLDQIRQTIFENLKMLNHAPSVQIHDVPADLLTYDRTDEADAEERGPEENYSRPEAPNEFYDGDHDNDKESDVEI
Sequence of Histone deacetylase 1 (Q13547 whole entry): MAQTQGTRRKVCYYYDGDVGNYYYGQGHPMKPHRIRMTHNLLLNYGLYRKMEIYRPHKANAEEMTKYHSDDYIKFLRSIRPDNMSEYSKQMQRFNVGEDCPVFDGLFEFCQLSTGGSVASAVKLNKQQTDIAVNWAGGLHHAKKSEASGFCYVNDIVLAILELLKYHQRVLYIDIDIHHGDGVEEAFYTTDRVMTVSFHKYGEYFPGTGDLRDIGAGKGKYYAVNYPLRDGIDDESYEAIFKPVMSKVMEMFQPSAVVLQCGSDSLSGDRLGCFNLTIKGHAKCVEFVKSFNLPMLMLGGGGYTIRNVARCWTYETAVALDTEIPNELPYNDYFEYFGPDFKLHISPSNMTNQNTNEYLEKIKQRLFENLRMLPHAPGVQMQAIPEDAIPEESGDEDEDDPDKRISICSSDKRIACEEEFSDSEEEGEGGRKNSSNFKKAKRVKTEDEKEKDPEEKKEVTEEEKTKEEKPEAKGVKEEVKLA
Sequence of Histone-lysine N-methyltransferase 2A (Q03164 1-2718 limits assumed): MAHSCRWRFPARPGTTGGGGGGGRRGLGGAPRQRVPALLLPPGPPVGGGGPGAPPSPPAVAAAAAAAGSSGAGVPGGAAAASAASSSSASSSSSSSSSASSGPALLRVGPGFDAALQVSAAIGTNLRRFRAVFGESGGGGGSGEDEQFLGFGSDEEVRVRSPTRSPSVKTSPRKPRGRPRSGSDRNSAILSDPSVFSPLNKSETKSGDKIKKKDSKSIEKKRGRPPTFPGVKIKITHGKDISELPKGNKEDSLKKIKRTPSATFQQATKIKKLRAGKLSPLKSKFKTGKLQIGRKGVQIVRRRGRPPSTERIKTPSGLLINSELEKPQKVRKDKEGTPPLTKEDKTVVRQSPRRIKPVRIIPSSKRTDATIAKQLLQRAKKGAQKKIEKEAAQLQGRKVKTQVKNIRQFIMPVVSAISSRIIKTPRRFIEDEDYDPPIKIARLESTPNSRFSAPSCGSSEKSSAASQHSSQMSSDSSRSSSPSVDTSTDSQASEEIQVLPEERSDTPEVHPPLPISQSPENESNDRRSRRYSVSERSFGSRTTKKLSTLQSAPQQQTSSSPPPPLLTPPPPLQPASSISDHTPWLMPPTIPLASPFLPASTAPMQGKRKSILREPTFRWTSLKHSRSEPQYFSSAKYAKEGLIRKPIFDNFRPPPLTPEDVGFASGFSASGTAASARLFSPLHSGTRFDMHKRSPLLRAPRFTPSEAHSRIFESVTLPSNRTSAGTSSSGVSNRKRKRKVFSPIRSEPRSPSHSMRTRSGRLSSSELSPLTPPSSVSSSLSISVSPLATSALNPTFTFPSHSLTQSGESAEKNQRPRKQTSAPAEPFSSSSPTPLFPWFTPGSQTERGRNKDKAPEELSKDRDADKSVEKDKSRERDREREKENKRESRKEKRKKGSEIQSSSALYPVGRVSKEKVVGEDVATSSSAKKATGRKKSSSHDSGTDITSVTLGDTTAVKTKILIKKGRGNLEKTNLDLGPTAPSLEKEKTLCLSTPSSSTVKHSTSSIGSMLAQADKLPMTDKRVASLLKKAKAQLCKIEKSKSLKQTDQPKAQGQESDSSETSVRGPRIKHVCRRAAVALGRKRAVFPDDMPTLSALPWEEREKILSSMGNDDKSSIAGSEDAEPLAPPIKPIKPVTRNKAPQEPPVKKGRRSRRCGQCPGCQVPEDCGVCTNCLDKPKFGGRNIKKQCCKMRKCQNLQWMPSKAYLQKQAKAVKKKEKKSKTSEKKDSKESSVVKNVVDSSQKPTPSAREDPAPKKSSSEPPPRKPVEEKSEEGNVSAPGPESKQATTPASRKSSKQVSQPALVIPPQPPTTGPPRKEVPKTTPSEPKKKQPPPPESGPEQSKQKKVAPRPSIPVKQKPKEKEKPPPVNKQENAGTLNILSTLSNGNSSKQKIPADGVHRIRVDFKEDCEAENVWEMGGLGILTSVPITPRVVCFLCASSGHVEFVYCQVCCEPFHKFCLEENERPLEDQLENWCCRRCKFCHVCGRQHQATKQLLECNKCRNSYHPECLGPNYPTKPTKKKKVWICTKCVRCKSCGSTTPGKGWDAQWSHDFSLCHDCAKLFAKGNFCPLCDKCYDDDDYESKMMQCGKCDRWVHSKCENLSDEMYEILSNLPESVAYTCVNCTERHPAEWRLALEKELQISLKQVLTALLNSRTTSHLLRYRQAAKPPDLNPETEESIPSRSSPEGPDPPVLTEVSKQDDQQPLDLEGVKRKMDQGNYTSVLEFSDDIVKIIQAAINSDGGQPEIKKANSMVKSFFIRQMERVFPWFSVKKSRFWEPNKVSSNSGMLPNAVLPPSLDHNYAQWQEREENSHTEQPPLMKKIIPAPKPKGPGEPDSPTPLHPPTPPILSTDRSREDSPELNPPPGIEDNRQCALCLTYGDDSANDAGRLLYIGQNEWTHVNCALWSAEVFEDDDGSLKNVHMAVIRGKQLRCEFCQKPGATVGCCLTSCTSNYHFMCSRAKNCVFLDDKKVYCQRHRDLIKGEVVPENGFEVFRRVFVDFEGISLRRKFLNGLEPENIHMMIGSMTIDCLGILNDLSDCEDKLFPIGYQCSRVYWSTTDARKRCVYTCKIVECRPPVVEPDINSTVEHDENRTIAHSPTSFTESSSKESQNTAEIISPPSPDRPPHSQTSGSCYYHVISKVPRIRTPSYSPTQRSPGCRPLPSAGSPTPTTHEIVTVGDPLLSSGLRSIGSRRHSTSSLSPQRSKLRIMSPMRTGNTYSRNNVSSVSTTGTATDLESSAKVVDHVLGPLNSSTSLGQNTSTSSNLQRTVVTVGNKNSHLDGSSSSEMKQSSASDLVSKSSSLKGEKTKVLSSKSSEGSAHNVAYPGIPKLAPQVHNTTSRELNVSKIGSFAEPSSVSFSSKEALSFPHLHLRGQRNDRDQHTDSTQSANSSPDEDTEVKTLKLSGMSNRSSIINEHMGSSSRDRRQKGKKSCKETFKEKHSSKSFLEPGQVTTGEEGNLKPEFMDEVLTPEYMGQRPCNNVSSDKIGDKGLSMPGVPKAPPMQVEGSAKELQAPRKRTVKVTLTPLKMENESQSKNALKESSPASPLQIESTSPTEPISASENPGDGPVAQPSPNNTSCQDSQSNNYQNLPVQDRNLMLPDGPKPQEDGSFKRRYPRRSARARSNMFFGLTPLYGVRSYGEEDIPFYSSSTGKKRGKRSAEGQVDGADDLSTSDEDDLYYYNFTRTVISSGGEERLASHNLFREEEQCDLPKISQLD
Sequence of Histone-lysine N-methyltransferase 2A (Q03164 2719-3969 limits assumed): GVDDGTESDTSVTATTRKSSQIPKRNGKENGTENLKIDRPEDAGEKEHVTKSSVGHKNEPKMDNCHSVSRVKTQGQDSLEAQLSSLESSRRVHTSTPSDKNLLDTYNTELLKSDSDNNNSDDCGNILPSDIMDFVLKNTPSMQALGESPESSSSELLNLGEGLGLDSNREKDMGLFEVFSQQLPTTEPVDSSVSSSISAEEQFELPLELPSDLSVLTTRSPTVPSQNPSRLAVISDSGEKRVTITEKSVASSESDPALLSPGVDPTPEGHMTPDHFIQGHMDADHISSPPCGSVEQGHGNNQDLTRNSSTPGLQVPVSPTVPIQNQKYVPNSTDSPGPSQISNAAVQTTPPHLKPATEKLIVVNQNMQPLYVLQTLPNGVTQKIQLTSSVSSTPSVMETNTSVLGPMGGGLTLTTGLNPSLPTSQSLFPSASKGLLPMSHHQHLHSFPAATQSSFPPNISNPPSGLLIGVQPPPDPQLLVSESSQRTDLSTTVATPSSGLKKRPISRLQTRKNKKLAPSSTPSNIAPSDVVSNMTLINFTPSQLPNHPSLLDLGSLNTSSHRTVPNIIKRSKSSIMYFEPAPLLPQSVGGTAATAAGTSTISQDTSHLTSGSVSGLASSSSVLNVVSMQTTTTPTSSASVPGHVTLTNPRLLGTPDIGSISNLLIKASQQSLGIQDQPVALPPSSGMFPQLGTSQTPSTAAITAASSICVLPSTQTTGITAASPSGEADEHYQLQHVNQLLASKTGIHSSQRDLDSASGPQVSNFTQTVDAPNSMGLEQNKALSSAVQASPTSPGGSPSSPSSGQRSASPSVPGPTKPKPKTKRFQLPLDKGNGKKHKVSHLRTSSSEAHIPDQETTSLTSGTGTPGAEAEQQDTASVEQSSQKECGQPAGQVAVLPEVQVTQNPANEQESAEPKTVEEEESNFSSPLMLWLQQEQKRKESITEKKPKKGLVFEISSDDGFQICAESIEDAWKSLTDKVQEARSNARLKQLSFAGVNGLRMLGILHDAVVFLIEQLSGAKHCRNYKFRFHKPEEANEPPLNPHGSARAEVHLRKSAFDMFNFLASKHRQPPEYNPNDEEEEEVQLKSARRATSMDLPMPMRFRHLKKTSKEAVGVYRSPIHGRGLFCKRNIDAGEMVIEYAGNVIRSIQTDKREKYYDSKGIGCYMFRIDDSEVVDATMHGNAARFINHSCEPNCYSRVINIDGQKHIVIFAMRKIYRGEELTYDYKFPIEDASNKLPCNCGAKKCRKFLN

Regarding `Cc1c(F)c(N)cc(C(=O)Nc2cc(-c3ccc(NC(=O)Cc4ccc(/C=C/C(=O)NO)cc4)cc3)ccc2N2CCN(C)CC2)c1Cl`, the IC50 in assay [1] came out at 69 nM; in assay [2] it was 831 nM; in [3], 663 nM; in assay [4], 157 nM; in assay [5], 115 nM; in assay [6] it was 310 nM.
Turning to `Cc1c(F)c(N)cc(C(=O)Nc2cc(-c3ccc(NC(=O)c4ccc(CC(=O)NO)cc4)cc3)ccc2N2CCN(C)CC2)c1Cl`, it took 226 nM to reach half-maximal inhibition in [1] (IC50).
For `Cc1c(F)c(N)cc(C(=O)Nc2cc(-c3ccc(NC(=O)CCc4ccc(/C=C/C(=O)NO)cc4)cc3)ccc2N2CCN(C)CC2)c1Cl`, the IC50 in [1] was 382 nM; in assay [2] it was 925 nM; in assay [3], 586 nM; in assay [4], 157 nM; in [5] it was 145 nM; in assay [6], 3220 nM.
`Cc1c(F)c(N)cc(C(=O)Nc2cc(-c3ccc(NC(=O)CCCCCC(=O)NO)cc3)ccc2N2CCN(C)CC2)c1Cl` gave a half-inhibitory concentration (IC50) in assay [1] of 181 nM.
In the case of `Cc1c(F)c(N)cc(C(=O)Nc2cc(-c3ccc(C(=O)NCCCCC(=O)NO)cc3)ccc2N2CCN(C)CC2)c1Cl`, in assay [1], it took 40 nM to reach half-maximal inhibition (IC50).
`Cc1c(F)c(N)cc(C(=O)Nc2cc(-c3ccc(C(=O)NCCCCCC(=O)NO)cc3)ccc2N2CCN(C)CC2)c1Cl` showed an IC50 in [1] of 71 nM.
`Cc1c(F)c(N)cc(C(=O)Nc2cc(-c3ccc(NC(=O)CCCCCCCC(=O)NO)cc3)ccc2N2CCN(C)CC2)c1Cl` had an IC50 in assay [1] of 230 nM.
In the case of `Cc1c(F)c(N)cc(C(=O)Nc2cc(-c3ccc(NC(=O)CCCCC(=O)NO)cc3)ccc2N2CCN(C)CC2)c1Cl`, the concentration for half-maximal inhibition (IC50) in assay [1] worked out at 33 nM.
In [1], `Cc1c(F)c(N)cc(C(=O)Nc2cc(-c3ccc(NC(=O)CCCC(=O)NO)cc3)ccc2N2CCN(C)CC2)c1Cl` displayed an IC50 of 43 nM.
In the case of `Cc1c(F)c(N)cc(C(=O)Nc2cc(-c3ccc(NC(=O)CCCCCCC(=O)NO)cc3)ccc2N2CCN(C)CC2)c1Cl`, the half-inhibitory concentration (IC50) in [1] was 41 nM; in assay [7], 99 nM; in [8], more than 10000 nM; in [9] it was 3960 nM; in assay [10], 7610 nM; in assay [11] it was 392 nM.
In turn, `Cc1c(F)c(N)cc(C(=O)Nc2cc(-c3ccc(C(=O)NCCCCCCC(=O)NO)cc3)ccc2N2CCN(C)CC2)c1Cl` had an IC50 in assay [1] of 40 nM.
Same read-out and setting: the same measure for `Cc1c(F)c(N)cc(C(=O)Nc2cc(-c3ccc(C(=O)NCCCCCCCC(=O)NO)cc3)ccc2N2CCN(C)CC2)c1Cl`: 188 nM.
In the case of `Cc1c(F)c(N)cc(C(=O)Nc2cc(-c3ccc(NC(=O)c4ccc(/C=C/C(=O)NO)cc4)cc3)ccc2N2CCN(C)CC2)c1Cl`, the IC50 amounted to 435 nM in assay [1]; 6980 nM in assay [2]; 5900 nM in assay [3]; 1200 nM in [4]; 122 nM in assay [5]; 2580 nM in assay [6].
With `Cc1c(F)c(N)cc(C(=O)Nc2cc(-c3ccc(C(=O)Nc4ccccc4N)cc3)ccc2N2CCN(C)CC2)c1Cl`, 215 nM corresponded to half-maximal inhibition in [1] (IC50).
In the case of `Cc1c(F)c(N)cc(C(=O)Nc2cc(-c3ccc(C(=O)NCCCC(=O)NO)cc3)ccc2N2CCN(C)CC2)c1Cl`, the IC50 in [1] is 30 nM.
With `Cc1c(F)c(N)cc(C(=O)Nc2cc(-c3ccc(NC(=O)Cc4ccc(C(=O)NO)cc4)cc3)ccc2N2CCN(C)CC2)c1Cl`, the IC50 in assay [1] was 87 nM.
Consider `Cc1c(F)c(N)cc(C(=O)Nc2cc(-c3ccc(NC(=O)c4ccccc4N)cc3)ccc2N2CCN(C)CC2)c1Cl`, for which the IC50 in [1] is 410 nM; in assay [3], 10000 nM.
With `O=C(CCCCCCC(=O)Nc1ccccc1)NO` [VORINOSTAT], the Activity in assay [12] amounted to 63.59%; in assay [13] it was 14.43%; in assay [14] it was 20.55%; in [15], 1.42%.

For orientation: IC50 means the midpoint of a concentration-inhibition curve.

Values taken from ChEMBL document CHEMBL6096706, “Discovery of WDR5-MLL1 and HDAC Dual-Target Inhibitors for the Treatment of Acute Myeloid Leukemia” (J Med Chem, 2025).
